{
  "source": "ChEMBL document CHEMBL6134825",
  "about": "“Mechanisms and therapeutic strategies for NLRP3 degradation via post-translational modifications in ubiquitin-proteasome and autophagy lysosomal pathway” (Eur J Med Chem, 2025)",
  "key": {"[1]": {"test": "AUC(0 to t) in Sprague-Dawley rat at 20 mg/kg, po measured up to 24 hrs by LC-MS/MS analysis", "type": "ADME, organism-based", "conditions": "in vivo"}, "[2]": {"test": "Oral bioavailability in Sprague-Dawley rat at 5 mg/kg by LC-MS/MA analysis", "type": "ADME, organism-based", "conditions": "in vivo"}, "[3]": {"test": "Oral bioavailability in Sprague-Dawley rat at 20 mg/kg by LC-MS/MS analysis", "type": "ADME, organism-based", "conditions": "in vivo"}, "[4]": {"test": "Toxicity in rat assessed as lethal dose", "conditions": "in vivo"}, "[5]": {"test": "AUC(0 to t) in Beagle dog at 3.6 mg/kg, po measured for 24 hrs by LC-MS/MS analysis", "type": "ADME, organism-based, Canis lupus familiaris", "conditions": "in vivo"}, "[6]": {"test": "Microsomal metabolic stability in Beagle dog liver microsomes assessed as half life […] by LC-MS/MS analysis", "type": "ADME, Canis lupus familiaris, Microsome"}, "[7]": {"test": "Oral bioavailability in Beagle dog at 3.6 mg/kgm measured for 24 hrs by LC-MS/MS analysis", "type": "ADME, organism-based, Canis lupus familiaris", "conditions": "in vivo, dose 3.6 mg/kg"}, "[8]": {"test": "Oral bioavailability in human at 2 microg/kg measured for 60 mins by LC-MS/MS analysis", "conditions": "in vivo, 0.002 mg/kg"}, "[9]": {"test": "Metabolic stability in human liver microsome assessed as half life", "conditions": "liver microsomes"}, "[10]": {"test": "AUC(0 to t) in ICR mouse plasma at 2 microg/kg, po measured for 60 mins by LC-MS/MS analysis", "conditions": "0.002 mg/kg"}, "[11]": {"test": "Acute toxicity in po dosed ICR mouse assessed as lethal dose", "type": "organism-based", "conditions": "in vivo"}, "[12]": {"test": "Oral bioavailability in ICR mouse at 5 mg/kg", "type": "ADME, organism-based", "conditions": "in vivo"}, "[13]": {"test": "AUC(0 to t) in ICR mouse plasma at 5 mg/kg, po measured for 60 mins by LC-MS/MS analysis", "type": "ADME, organism-based"}, "[14]": {"test": "Toxicity in iv dosed rat assessed as lethal dose", "type": "organism-based", "conditions": "in vivo"}, "[15]": {"test": "AUC(0 to t) in Sprague-Dawley rat at 5 mg/kg, po measured up to 24 hrs by LC-MS/MS analysis", "type": "ADME, organism-based", "conditions": "in vivo"}, "[16]": {"test": "Toxicity in ip dosed rat assessed as lethal dose", "type": "organism-based", "conditions": "in vivo"}, "[17]": {"test": "AUC(0 to t) in Sprague-Dawley rat at 300 mg/kg, po measured up to 24 hrs by LC-MS/MS analysis", "type": "ADME, organism-based", "conditions": "in vivo"}, "[18]": {"test": "Metabolic stability in rat liver microsomes assessed as half life measured for 60 mins by LC-MS/MS analysis", "type": "ADME, Microsome"}},
  "data": [
    {"smiles": "O=c1c(O)c(-c2ccc(O)cc2)oc2cc(O)cc(O)c12", "note": "[KAEMPFEROL]", "values": [
      {"measurement": "AUC(0-t) at 24 h", "setting": "[1]", "value": 234, "unit": "µg·h/mL"},
      {"measurement": "bioavailability", "setting": "[2]", "value": 7, "unit": "%"},
      {"measurement": "bioavailability", "setting": "[3]", "value": 2, "unit": "%"},
      {"measurement": "LD50", "setting": "[4]", "value": 3810, "unit": "mg/kg"}
    ]},
    {"smiles": "C[C@@H]1C(=O)O[C@H]2[C@@H](O)C34[C@H]5C[C@@H](C(C)(C)C)C36[C@@H](OC(=O)[C@@H]6O)O[C@@]4(C(=O)O5)[C@@]12O", "note": "(stereo partly drawn)", "values": [
      {"measurement": "AUC(0-t) at 24 h", "setting": "[5]", "value": 356, "unit": "µg·h/mL"},
      {"measurement": "half-life", "setting": "[6]", "value": 1, "unit": "h"},
      {"measurement": "bioavailability", "setting": "[7]", "value": 17, "unit": "%"}
    ]},
    {"smiles": "Cc1cccc([C@H](C)c2cnc[nH]2)c1C", "note": "[DEXMEDETOMIDINE]", "values": [
      {"measurement": "bioavailability at 1 h", "setting": "[8]", "value": 15.6, "unit": "%"},
      {"measurement": "half-life", "setting": "[9]", "value": 2, "unit": "h"},
      {"measurement": "AUC(0-t) at 1 h", "setting": "[10]", "value": 0.45, "unit": "µg·h/mL"}
    ]},
    {"smiles": "COc1cc(/C=C/C(=O)O)ccc1O", "note": "[FERULATE]", "values": [
      {"measurement": "LD50", "setting": "[11]", "value": 3200, "unit": "mg/kg"}
    ]},
    {"smiles": "O=C(Nc1c2c(cc3c1CCC3)CCC2)NS(=O)(=O)c1ccc(OCCOCCOCCOCCN2C(=O)/C(=C\\c3cc(Br)c(O)c(Br)c3)c3cc(I)ccc32)cc1", "values": [
      {"measurement": "bioavailability", "setting": "[12]", "value": 19, "unit": "%"},
      {"measurement": "AUC(0-t) at 1 h", "setting": "[13]", "value": 551, "unit": "µg·h/mL"}
    ]},
    {"smiles": "O=c1c(-c2ccc(O)cc2)coc2c([C@@H]3O[C@H](CO)[C@@H](O)[C@H](O)[C@H]3O)c(O)ccc12", "note": "[PUERARIN]", "values": [
      {"measurement": "LD50", "setting": "[14]", "value": 634, "unit": "mg/kg"},
      {"measurement": "AUC(0-t) at 24 h", "setting": "[15]", "value": 109, "unit": "µg·h/mL"},
      {"measurement": "LD50", "setting": "[16]", "value": 1410, "unit": "mg/kg"}
    ]},
    {"smiles": "O=C1c2cccc(O)c2C(=O)c2c(O)cc(CO)cc21", "note": "[ALOE-EMODIN]", "values": [
      {"measurement": "AUC(0-t) at 24 h", "setting": "[17]", "value": 42.8, "unit": "µg·h/mL"}
    ]},
    {"smiles": "Cc1cnc(-c2ccccc2C(C)C)nc1NCc1ccc(-n2ccnn2)cc1", "values": [
      {"measurement": "half-life", "setting": "[18]", "value": 0.2, "unit": "h"}
    ]}
  ]
}
